Assay [1] has as its system bitter-responsive human taste bud tissue-derived cells (hTBEC). Nature of the assay: ATP secretion detection assay (luminescence). It is filed as cell-based. How it is done: (§1) The bitter blocker candidates were further characterized using bitter-responsive human taste bud tissue-derived cells (hTBEC) platforms and bioassays. Bitter-responsive hTBECs were treated with hitter blocker candidates and various bitter agonists to assess the efficacy of each bitter blocker candidate in reducing the bitterness of each of the various bitter agonists.
One industry standard bitter agonist was used as a control (L-Praziquantel), and five bitter blocker controls were used (Senomyx BB68, STX-001, sodium gluconate, eridictyol, and homoeridictyol).
BB09, BB11, and BB13 were first tested at various concentrations in combination with 100 μM Dextromethorphan-HBr.
Next, bitter blocker concentration ranges were narrowed (100 μM-1,000 μM) and compared to a fixed concentration of stimulus. […] BB13 was evaluated further by real time ATP secretion detection in pooled hTBEC 66 cells treated with 300 μM Theobromine.
Each culture was treated with BB09, BB11, BB13, STX001, or Senomyx BB68, as well as either Dextromethorphan-HBr at 1000 μM (FIGS. 18A-18C), Theobromine at 1,000 μM (FIGS. 19A-19C), Rebaudioside A at 1 mM (FIGS. 20A-20C), or Caffeine at 3 mM (FIGS. 21A-21C).

For assay [2], the system named is peach-flavored energy drink (caffeine, B vitamins). Nature of the assay: Sensory evaluation: bitterness reduction of a peach-flavored energy drink. It is filed as in vivo. Conditions: dosage per sample. As to the method: The bitterness blocker candidates listed in Table 1 were prepared into a 1% sample solution with propylene glycol and heated to ensure complete solubilization. […] A trained sensory evaluator was asked to estimate the perceived bitterness reduction against the control, as well as to provide comments on how the addition of the individual sample solution modulated the taste and mouth feel profile of the resulting peach-flavored energy drink.

Assay [3] deals with dark roast coffee. Nature of the assay: Sensory evaluation: bitterness reduction of dark roast coffee. Conditions: dosage 50 or 100 ppm per sample. In kind it is in vivo. As to the method:
The bitterness blocker candidates listed in Table 1 were prepared into a 1% sample solution with propylene glycol and heated to ensure complete solubilization. […] A trained sensory evaluator was asked to estimate the perceived bitterness reduction against the control, as well as to provide comments on how the addition of the individual sample solution modulated the taste and mouth feel profile of the resulting dark roast coffee.

Assay [4] relates to individual donor-derived hTBECs. Nature of the assay: Cell calcium mobilization assay. In kind it is cell-based, human. How it is done:
as §1
Calcium mobilization response following treatment of 100 μM Dextromethorphan-HBr, 3000 μM Theobromine, and 3 mM Caffeine was evaluated in individual donor-derived hTBECs.
A general note: A change in cytosolic calcium serves as a functional read-out for many receptors and channels.

The test system of assay [5] is caffeine in water. Nature of the assay: Two-alternative forced choice (2AFC) difference test. It is filed as in vivo. As to the method: The bitter blocker candidates BB09, BB11, and BB13 were subject to a two-alternative forced choice (2AFC) difference test wherein panelists were presented Control Caffeine solutions and Test solutions containing caffeine and one of three bitterness blocker candidates (BB09, BB 11, or BB13). Panelists were asked to evaluate the two samples and answer the question, “which one is more hitter?”
BB09 and BB11 were tested first. Three ounces of control (caffeine in water), BB09 in caffeine water, and BB11 in caffeine water were presented at room temperature in separate plastic souffle cups labeled with 3-digit codes. Ten sensory trained panelists evaluated each sample in three repetitions with a 10 minute break between repetitions. Panelists then completed the 2AFC. Data was collected on EveQuestion and analyzed on XLSTAT. Testing was conducted at Sensations Research according to FEMA guidelines.
BB13 was tested separately. Two ounces of control (caffeine in water), BB13 in caffeine water were presented at room temperature in separate plastic souffle cups labeled with 3-digit codes. Fifteen participants evaluated each sample in two repetitions with a 10 minute break between repetitions for a total of thirty evaluations as per the FEMA guidelines. Panelists then completed the 2AFC to identify the more bitter sample. Data was collected and analyzed on Compusense.

Where [6] appears, read: of thirty evaluations (15 participants, 2 repetitions).

On to `O=C1C[C@@H](c2ccc(O)c(O)c2)Oc2c1c(O)cc(O)c2[C@@H]1O[C@H](CO)[C@@H](O)[C@H](O)[C@H]1O` [BB13, Eriodictyol-8-C-β-glucoside], for which the “inhibition of luminescence signal from Dextromethorphan-HBr” value in assay [1] (100 μM Dextromethorphan-HBr, blocker 100 μM-1,000 μM, upper concentrations, individual donor-derived hTBECs (FIG. 14A)) is reported as “inhibited luminescence signal”. For the same compound, the “inhibitory activity against Dextromethorphan-HBr (ATP secretion)” value in assay [1] (100 μM Dextromethorphan-HBr, blocker 1 mM, all three hTBEC cultures (FIG. 22A)) is recorded as “consistently showed inhibitory activity”. In addition, the “inhibition of luminescence activity of Dextromethorphan-HBr (ATP secretion)” value in assay [1] (100 μM Dextromethorphan-HBr, various blocker concentrations (FIG. 12)) was “able to inhibit”. Besides, in assay [1] (400 μM L-Praziquantel, blocker 100 μM-1,000 μM, upper concentrations, individual donor-derived hTBECs (FIG. 14B)), the “inhibition of luminescence signal from L-Praziquantel” value is “inhibited luminescence signal”. Further, the “inhibitory activity against L-Praziquantel (ATP secretion)” value in assay [1] (400 μM L-Praziquantel, blocker 1 mM, all three hTBEC cultures (FIG. 24)) is reported as “consistently showed inhibitory activity”. Besides, the “inhibition of the L-Praziquantel response (ATP secretion)” value in assay [1] (400 μM L-Praziquantel, pooled donor-derived hTBEC (FIG. 13)) is recorded as “showed inhibition”. In addition, the “inhibitory activity against Rebaudioside A (ATP secretion)” value in assay [1] (1 mM Rebaudioside A, blocker 1 mM, all three hTBEC cultures (FIG. 23A)) is on record as “consistently showed inhibitory activity”. In addition, the “real time Rebaudioside A-induced ATP secretion” value in assay [1] (1 mM Rebaudioside A, blocker 1,000 μM, pooled hTBEC 56 cultures (FIG. 17)) was “attenuated”. For the same compound, the “inhibitory activity against Theobromine (ATP secretion)” value in assay [1] (1,000 μM Theobromine, blocker 1 mM, all three hTBEC cultures (FIG. 22B)) is given as “consistently showed inhibitory activity”. The “inhibitory activity against Caffeine (ATP secretion)” value in assay [1] (3 mM Caffeine, blocker 1 mM, all three hTBEC cultures (FIG. 23B)) was “consistently showed inhibitory activity”. Further, the “inhibition of Rebaudioside A-induced ATP secretion” value in assay [1] (3 mM Rebaudioside A, pooled hTBEC 56 cultures, blocker 100, 300 or 1,000 μM (FIG. 16)) is listed as “strongest inhibition”. The “inhibition of the bitter agonists (ATP secretion)” value in assay [1] (hTBEC 66, hTBEC 56, hTBEC Donor H, Dextromethorphan-HBr at 1000 μM, Theobromine 1,000 μM, Rebaudioside A 1 mM or Caffeine 3 mM (FIGS. 18-21)) is “most consistent inhibition”. The “real time ATP secretion response to Theobromine” value in assay [1] (pooled hTBEC 66 cells, 300 μM Theobromine, blocker at 1 mM (FIG. 15)) is given as “attenuated the Theobromine-stimulated signal”. Besides, the Comments result in assay [2] was “Excellent bitter blocking”. In addition, in assay [3], the Comments result was “Very smooth with nice upfront”. For the same compound, the “inhibition of calcium mobilization induced by Dextromethorphan-HBr” value in assay [4] (100 μM Dextromethorphan-HBr, blocker 0.3 μM to 1,000 μM, at high concentrations (FIG. 25)) is listed as “inhibited calcium mobilization”. For the same compound, the “inhibition of calcium mobilization induced by Caffeine” value in assay [4] (3 mM Caffeine, blocker 1,000 μM, hTBEC 56 cells (FIG. 27)) is given as “inhibited calcium mobilization”. Further, the “inhibition of calcium mobilization induced by Theobromine” value in assay [4] (3000 μM Theobromine, blocker 1 μM to 3,000 μM, at high concentrations (FIG. 26)) is recorded as “inhibited calcium mobilization”. In addition, the “significance of bitterness difference control vs sample” value in assay [5] (90% and 95% confidence interval (FIG. 11)) is “control sample was significantly more bitter”. Also, the “panelists' description of samples” value in assay [5] (blocker in caffeine water) is “initial sweetness that mask the bitterness, less lingering bitterness, and having a nutty taste”. In assay [5] (setting [6]), the “evaluations identifying the sample containing the blocker as more bitter” value is given as “three” and the “evaluations selecting control as more bitter” value is on record as “Twenty-seven”.

The values above are taken from patent US20230270148A1, “BITTER BLOCKERS AND RELATED METHODS OF USE” (Conagen Inc., priority 2020, published 2023).
